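Protocol summary: plate cells (96-well), add compound at 5 concentrations, incubate 48 h, interpolate endpoints linearly. GI50: concentration for 50% inhibition of growth.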 The source made the active and inactive calls. Rule as the data show it: active = GI50 up to about 1.1 µM and inactive = higher.
How the values were obtained:
Test in all cases: growth of human tumour cells (NCI), 48 h
EKVX = test system: EKVX
HCC 2998 = test system: HCC 2998
HOP-62 = test system: HOP-62
HT-29 = test system: HT-29
K562 = test system: K562
KM12 = test system: KM12
MDA-MB-435 = test system: MDA-MB-435
NCI-H460 = test system: NCI-H460
NCI/ADR-RES = test system: NCI/ADR-RES
OVCAR-3 = test system: OVCAR-3
OVCAR-8 = test system: OVCAR-8
RPMI-8226 = test system: RPMI-8226
SF-295 = test system: SF-295
SNB-19 = test system: SNB-19
SR = test system: SR
UACC-257 = test system: UACC-257
UO-31 = test system: UO-31
MOLT-4 = test system: MOLT-4
SF-539 = test system: SF-539

Measured: GI50

C[N+](C)(C)c1ccc(C(N)C(=O)O)cc1 (centres undefined)
inactive: EKVX > 100 µM | HCC 2998 > 100 µM | HOP-62 > 100 µM | HT-29 > 100 µM | K562 > 100 µM | KM12 > 100 µM | MDA-MB-435 > 100 µM | NCI-H460 > 100 µM | NCI/ADR-RES > 100 µM | OVCAR-3 > 100 µM | OVCAR-8 > 100 µM | RPMI-8226 > 100 µM | SF-295 > 100 µM | SNB-19 > 100 µM | SR > 100 µM | UACC-257 > 100 µM | UO-31 > 100 µM

c1ccc(-n2nc3ccc4nonc4c3n2)cc1
inactive: EKVX 44.6 µM | HCC 2998 > 100 µM | HOP-62 > 100 µM | HT-29 > 100 µM | K562 > 100 µM | KM12 > 100 µM | MDA-MB-435 > 100 µM | MOLT-4 > 100 µM | NCI-H460 > 100 µM | NCI/ADR-RES > 100 µM | OVCAR-3 > 100 µM | OVCAR-8 > 100 µM | RPMI-8226 > 100 µM | SF-295 > 100 µM | SF-539 > 100 µM | SNB-19 45.9 µM | SR > 100 µM | UACC-257 > 100 µM

COC(=O)C1=C(C)C(=O)[C@]23C(CCCC[C@H]12)C(=O)[C@H](C(=O)OC)C3C (some centres undefined)
inactive: EKVX > 100 µM | HCC 2998 > 100 µM | HOP-62 > 100 µM | HT-29 > 100 µM | K562 > 100 µM | KM12 > 100 µM | MDA-MB-435 > 100 µM | MOLT-4 > 100 µM | NCI-H460 > 100 µM | NCI/ADR-RES > 100 µM | OVCAR-3 > 100 µM | OVCAR-8 > 100 µM | SF-295 > 100 µM | SF-539 > 100 µM | SNB-19 > 100 µM | SR 50.9 µM | UACC-257 > 100 µM | UO-31 > 100 µM

NCCP(=O)(O)O
inactive: EKVX > 100 µM | HCC 2998 > 100 µM | HOP-62 > 100 µM | HT-29 > 100 µM | K562 > 100 µM | KM12 > 100 µM | MDA-MB-435 > 100 µM | MOLT-4 > 100 µM | NCI-H460 > 100 µM | NCI/ADR-RES > 100 µM | OVCAR-3 > 100 µM | OVCAR-8 > 100 µM | RPMI-8226 > 100 µM | SF-295 > 100 µM | SNB-19 > 100 µM | SR > 100 µM | UACC-257 > 100 µM | UO-31 > 100 µM

O=S1(=O)c2ccccc2N2CCCc3cc(Cl)cc1c32
inactive: EKVX > 100 µM | HCC 2998 > 100 µM | HOP-62 41.1 µM | HT-29 > 100 µM | K562 > 100 µM | KM12 > 100 µM | MDA-MB-435 > 100 µM | MOLT-4 > 100 µM | NCI-H460 > 100 µM | NCI/ADR-RES > 100 µM | OVCAR-3 67.5 µM | OVCAR-8 > 100 µM | SF-295 29.3 µM | SF-539 35 µM | SNB-19 56.6 µM | SR > 100 µM | UACC-257 > 100 µM | UO-31 > 100 µM

Cc1cc(=O)c2ccccc2n1CCCCCCCCCCn1c(C)cc(=O)c2ccccc21
inactive: EKVX 11.7 µM | HCC 2998 11.8 µM | HOP-62 > 100 µM | HT-29 15.9 µM | K562 4.68 µM | KM12 15.9 µM | MDA-MB-435 14.8 µM | MOLT-4 8.69 µM | NCI-H460 15.7 µM | NCI/ADR-RES 16.6 µM | OVCAR-3 37.3 µM | OVCAR-8 16.8 µM | SF-295 > 10 µM | SF-539 25.8 µM | SNB-19 18.1 µM | SR 13.2 µM | UACC-257 11.7 µM | UO-31 12 µM

CC1CCCC(CC(=O)O)(CC(=O)O)C1 (centres undefined)
inactive: EKVX > 100 µM | HCC 2998 > 100 µM | HT-29 > 100 µM | K562 > 100 µM | KM12 > 100 µM | MDA-MB-435 > 100 µM | MOLT-4 48.1 µM | NCI-H460 > 100 µM | NCI/ADR-RES > 100 µM | OVCAR-8 > 100 µM | RPMI-8226 > 100 µM | SF-539 > 100 µM | SNB-19 > 100 µM | SR > 100 µM | UACC-257 > 100 µM | UO-31 > 100 µM

O=C1C=C(NCCc2ccc(O)cc2)C(=O)C=C1NCCc1ccc(O)cc1
inactive: EKVX > 100 µM | HCC 2998 > 100 µM | HOP-62 64 µM | HT-29 > 100 µM | K562 38 µM | KM12 > 100 µM | MDA-MB-435 49.1 µM | MOLT-4 46.5 µM | NCI-H460 > 100 µM | NCI/ADR-RES > 100 µM | OVCAR-3 > 100 µM | OVCAR-8 48.8 µM | RPMI-8226 > 100 µM | SF-295 > 100 µM | SNB-19 > 100 µM | SR > 100 µM | UACC-257 > 100 µM | UO-31 > 100 µM

COCc1nc2c(OC)c(-c3nc4ccc(N5CCN(C)CC5)nc4[nH]3)cc(OC)c2[nH]1
inactive: EKVX 68.1 µM | HCC 2998 99.3 µM | HOP-62 40.1 µM | HT-29 31 µM | K562 25.4 µM | KM12 27.4 µM | MDA-MB-435 41.8 µM | MOLT-4 37.1 µM | NCI-H460 35.3 µM | NCI/ADR-RES > 100 µM | OVCAR-3 15.9 µM | OVCAR-8 82.6 µM | SF-295 31.6 µM | SNB-19 48 µM | SR 32.9 µM | UACC-257 24 µM | UO-31 56.2 µM

COc1ccc2c(c1)OCC1Cc3cc4c(cc3OC21)OCO4 (centres undefined)
inactive: EKVX 41.1 µM | HCC 2998 44.6 µM | HOP-62 41.2 µM | HT-29 35.1 µM | K562 33.1 µM | KM12 31.8 µM | MDA-MB-435 7.73 µM | MOLT-4 36.8 µM | NCI/ADR-RES 26.2 µM | OVCAR-3 47.9 µM | OVCAR-8 45 µM | RPMI-8226 71.4 µM | SF-295 48.5 µM | SF-539 39.6 µM | SNB-19 > 100 µM | SR 40.6 µM | UACC-257 30.2 µM | UO-31 38.6 µM

COc1ccc(/N=N/c2ccc3oc(=O)c(C(=O)Nc4ccccc4C)cc3c2)cc1
inactive: EKVX > 10 µM | HCC 2998 > 10 µM | HOP-62 > 10 µM | HT-29 > 10 µM | KM12 > 10 µM | MDA-MB-435 > 10 µM | MOLT-4 > 10 µM | NCI-H460 > 10 µM | NCI/ADR-RES > 10 µM | OVCAR-3 > 10 µM | OVCAR-8 > 10 µM | RPMI-8226 > 10 µM | SF-295 > 10 µM | SF-539 > 10 µM | SR > 10 µM | UACC-257 > 10 µM | UO-31 > 10 µM

Cc1nn(C(=O)c2ccc(Cl)cc2)c2c1C(/C=C/c1ccccc1)SC(=N)N2 (centres undefined)
inactive: EKVX > 10 µM | HCC 2998 > 10 µM | HOP-62 > 10 µM | HT-29 > 10 µM | K562 > 10 µM | KM12 > 10 µM | MDA-MB-435 > 10 µM | MOLT-4 > 10 µM | NCI-H460 > 10 µM | NCI/ADR-RES > 10 µM | OVCAR-3 > 10 µM | OVCAR-8 > 10 µM | RPMI-8226 > 10 µM | SF-295 > 10 µM | SF-539 > 10 µM | SNB-19 > 10 µM | SR > 10 µM | UACC-257 > 10 µM

Cc1cc(OCc2nnc3n2N=C(c2cc(F)c(Cl)cc2Cl)/C(=C/c2ccc(-c4ccc(Cl)cc4)o2)S3)ccc1Cl
inactive: EKVX 16.3 µM | HCC 2998 19 µM | HOP-62 > 50 µM | HT-29 21.3 µM | K562 26.9 µM | KM12 41.5 µM | MDA-MB-435 19.3 µM | MOLT-4 > 50 µM | NCI-H460 29.5 µM | NCI/ADR-RES 12.1 µM | OVCAR-3 30.5 µM | OVCAR-8 > 50 µM | RPMI-8226 14.1 µM | SF-295 36.6 µM | SNB-19 > 50 µM | SR 22.9 µM | UACC-257 > 50 µM | UO-31 48.5 µM

COc1ccc(-c2cc(-c3ccc(C)cc3)n(C3OC(COC(C)=O)C(OC(C)=O)C(OC(C)=O)C3OC(C)=O)c(=S)c2C#N)cc1 (centres undefined)
inactive: EKVX > 100 µM | HCC 2998 > 100 µM | HOP-62 37.1 µM | HT-29 > 100 µM | K562 > 100 µM | KM12 > 100 µM | MDA-MB-435 > 100 µM | MOLT-4 > 100 µM | NCI-H460 > 100 µM | NCI/ADR-RES > 100 µM | OVCAR-3 > 100 µM | OVCAR-8 > 100 µM | RPMI-8226 > 100 µM | SF-295 > 100 µM | SF-539 57.5 µM | SNB-19 90.6 µM | SR > 100 µM | UO-31 > 100 µM

CCOC(=O)/C(=C\NC(=S)Nc1ccc(Cl)c(Cl)c1)C(=O)c1ccccc1
inactive: EKVX > 100 µM | HCC 2998 17.3 µM | HOP-62 40.6 µM | HT-29 33.1 µM | K562 10 µM | KM12 26.5 µM | MDA-MB-435 17.7 µM | MOLT-4 19 µM | NCI-H460 42.1 µM | NCI/ADR-RES 33 µM | OVCAR-8 47.6 µM | RPMI-8226 5.12 µM | SF-295 33.6 µM | SF-539 3.12 µM | SR 20.4 µM | UACC-257 34 µM | UO-31 1.52 µM

Source: ChEMBL document CHEMBL1201862, “PubChem BioAssay data set” (2004)
